Each structure is given as a SMILES string.

In the test the target is T1, purified pig brain PMCA (brainPMCA).
T1 construct: gene ATP2B1; native, purified from pig brain synaptosomal plasma membrane vesicles, delipidated, reconstituted in PS or PC
The test is described as follows: quenching of intrinsic Trp fluorescence, Stern-Volmer. The settings on record: reconstituted in PS, no tau; pH 7.4, 25 °C, 100 mM KCl, 2 mM MgCl2, 3.16 µM free Ca2+, 1 mM ATP; unreliable (extrapolated: titrated only up to 10 µM MB). Format: binding, Sus scrofa. An excerpt: quenching of intrinsic Trp fluorescence, Stern-Volmer on purified pig brain PMCA (brainPMCA)

Consider `CN(C)c1ccc2nc3ccc(=[N+](C)C)cc-3sc2c1` [Methylene blue], for which the “Kd” value is on record as 52.6 ± 2.5 µM.

Values taken from PMC6678728, “Methylene Blue Blocks and Reverses the Inhibitory Effect of Tau on PMCA Function” (International Journal of Molecular Sciences, 2019).
